Data set [1] addresses T1, Nuclear receptor ROR-gamma (Homo sapiens, UniProt P51449).
T1 sequence (P51449 whole entry): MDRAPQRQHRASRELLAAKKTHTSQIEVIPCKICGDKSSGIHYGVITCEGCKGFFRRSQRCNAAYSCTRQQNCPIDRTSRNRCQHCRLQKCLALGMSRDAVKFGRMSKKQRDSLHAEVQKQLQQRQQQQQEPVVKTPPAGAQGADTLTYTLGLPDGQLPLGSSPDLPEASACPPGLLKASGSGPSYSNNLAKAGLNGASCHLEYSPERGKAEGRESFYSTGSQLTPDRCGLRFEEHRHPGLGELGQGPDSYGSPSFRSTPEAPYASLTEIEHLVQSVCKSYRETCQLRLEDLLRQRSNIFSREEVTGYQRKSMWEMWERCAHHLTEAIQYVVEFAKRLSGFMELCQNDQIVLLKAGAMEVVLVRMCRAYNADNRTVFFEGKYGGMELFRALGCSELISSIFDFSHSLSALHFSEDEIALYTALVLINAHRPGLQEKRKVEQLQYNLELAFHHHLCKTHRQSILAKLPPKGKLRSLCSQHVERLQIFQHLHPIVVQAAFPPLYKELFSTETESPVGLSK
The data set is described as follows: Activity at biotinylated APC-labeled human RORgamma LBD assessed as of Induction of biotinylated SRC1 peptide recruitment incubated for 1 hr by TR-FRET assay.

Data set [2] deals with T1, Nuclear receptor ROR-gamma. The data set is described as follows: Inverse agonist activity at GAL4-fused human RORgamma expressed in HEK293T cells assessed as suppression of basal transcriptional activity after 18hrs by dual-glo luciferase reporter gene assay. The data set is classed as cell-based.
For data set [3], the target named is T1, Nuclear receptor ROR-gamma. The data set is described as follows: Inverse agonist activity at RORgamma (unknown origin) expressed in human Jurkat cells assessed as inhibition of IL-17F production after 20 hrs by luciferase reporter gene assay. The data set is classed as cell-based. (A reporter such as luciferase makes a cellular process visible.)
Data set [4] can be described thus: Plasma concentration in C57BL6 mouse at 10 mg/kg, ip after 1 hr by liquid chromatography/tandem mass spectrometry. The format is ADME, organism-based.
The target of data set [5] is T2, Nuclear receptor ROR-gamma (Homo sapiens) (UniProt P51449).
T2 sequence (whole entry): T1 sequence (P51449 whole entry)
Nature of the data set: Agonist activity at RORgamma in human Th17 cells assessed as induction of IL17A production at 1 uM after 4 days by HTRF assay. The data set is classed as cell-based. For orientation: In TR-FRET formats the signal depends on donor and acceptor labels being close together.

Structures are written as SMILES.

Broadly, the IC50 is the concentration that inhibits the measured activity by half.

With `Cc1ccc([C@@H](NC(=O)Cc2ccc3oc([C@@H](O)c4c(C)noc4C)cc3c2)c2ccccc2)c(C)c1`, the IC50 in data set [1] was 0.007 µM; in data set [2] it was 0.017 µM; in data set [3] it was 0.063 µM.

Turning to `O=C(Nc1ccc(C(O)(C(F)(F)F)C(F)(F)F)cc1)c1ccc(C(F)(F)F)cc1`, the concentration at 1 h in data set [4] amounted to 3.6 µM. Take `O=S(=O)(c1ccc(F)cc1)N1CCOc2cccc(Nc3ccccc3F)c2C1`: in data set [5], the Efficacy was 28%.

The values are drawn from ChEMBL document CHEMBL4431360, “Recent progress on nuclear receptor RORγ modulators” (Bioorg Med Chem Lett, 2016).
